Measured values taken from the NIST ThermoML archive (doi:10.1021/je800150h).
± gives the expanded uncertainty stated by the source.

Assay: mn = molality of the nth substance listed, in mol/kg
Settings: 101 kPa, Liquid; for electrical conductivity: CyberScan CON500 conductivity meter

[Cl-].[Li+] [lithium chloride] + CCO
Settings	electrical conductivity [S/m]	mass density [kg/m3]	viscosity [mPa·s]
268.1 K, m1 = 0.196	0.117 ± 0.0094	810.9 ± 3.8	2.208 ± 0.1
268.1 K, m1 = 0.391	0.197 ± 0.016	817.9 ± 3.8	2.546 ± 0.12
268.1 K, m1 = 0.782	0.269 ± 0.021	828.4 ± 3.9	3.283 ± 0.15
268.1 K, m1 = 1.173	0.3 ± 0.024	838.1 ± 3.9	4.167 ± 0.19
268.1 K, m1 = 1.76	0.305 ± 0.024	854.5 ± 4	5.819 ± 0.26
268.1 K, m1 = 2.347	0.276 ± 0.022	869.4 ± 4.1	9.082 ± 0.38
268.1 K, m1 = 3.129	0.222 ± 0.018	887.7 ± 4.2	14.96 ± 0.6
268.1 K, m1 = 3.911	0.162 ± 0.013	907.8 ± 4.3	25.44 ± 1
273.1 K, m1 = 0.196	0.13 ± 0.01	805.1 ± 3.6	2.043 ± 0.096
273.1 K, m1 = 0.391	0.221 ± 0.018	810.6 ± 3.6	2.313 ± 0.11
273.1 K, m1 = 0.782	0.3 ± 0.024	821.3 ± 3.6	2.943 ± 0.14
273.1 K, m1 = 1.173	0.335 ± 0.027	832.5 ± 3.7	3.722 ± 0.17
273.1 K, m1 = 1.76	0.343 ± 0.027	847 ± 3.8	5.158 ± 0.23
273.1 K, m1 = 2.347	0.315 ± 0.025	863.1 ± 3.8	7.821 ± 0.33
273.1 K, m1 = 3.129	0.258 ± 0.021	882.4 ± 3.9	12.71 ± 0.51
273.1 K, m1 = 3.911	0.198 ± 0.016	901.1 ± 4	21.16 ± 0.85
278.1 K, m1 = 0.196	0.144 ± 0.011	803.2 ± 3.4	1.863 ± 0.088
278.1 K, m1 = 0.391	0.245 ± 0.02	810.3 ± 3.4	2.099 ± 0.098
278.1 K, m1 = 0.782	0.336 ± 0.027	821.5 ± 3.5	2.638 ± 0.12
278.1 K, m1 = 1.173	0.383 ± 0.031	834.1 ± 3.5	3.323 ± 0.15
278.1 K, m1 = 1.76	0.394 ± 0.032	845.5 ± 3.6	4.57 ± 0.21
278.1 K, m1 = 2.347	0.362 ± 0.029	864.5 ± 3.7	6.735 ± 0.29
278.1 K, m1 = 3.129	0.3 ± 0.024	883.6 ± 3.8	10.78 ± 0.44
278.1 K, m1 = 3.911	0.238 ± 0.019	902.1 ± 3.9	17.62 ± 0.7
283.1 K, m1 = 0.196	0.158 ± 0.013	796.1 ± 3.1	1.695 ± 0.08
283.1 K, m1 = 0.391	0.27 ± 0.022	800.9 ± 3.2	1.908 ± 0.09
283.1 K, m1 = 0.782	0.37 ± 0.03	812.2 ± 3.2	2.366 ± 0.11
283.1 K, m1 = 1.173	0.441 ± 0.035	823.4 ± 3.3	2.959 ± 0.14
283.1 K, m1 = 1.76	0.445 ± 0.036	837.4 ± 3.3	4.045 ± 0.18
283.1 K, m1 = 2.347	0.417 ± 0.033	854.2 ± 3.4	5.802 ± 0.25
283.1 K, m1 = 3.129	0.348 ± 0.028	875.7 ± 3.5	9.203 ± 0.38
283.1 K, m1 = 3.911	0.276 ± 0.022	891.8 ± 3.6	14.68 ± 0.59
288.15 K, m1 = 0.196	0.172 ± 0.014	789.7 ± 2.9	1.495 ± 0.071
288.15 K, m1 = 0.391	0.295 ± 0.024	795.9 ± 2.9	1.715 ± 0.081
288.15 K, m1 = 0.782	0.415 ± 0.033	807.5 ± 3	2.1 ± 0.098
288.15 K, m1 = 1.173	0.477 ± 0.038	817.5 ± 3.1	2.603 ± 0.12
288.15 K, m1 = 1.76	0.505 ± 0.04	831.6 ± 3.1	3.546 ± 0.16
288.15 K, m1 = 2.347	0.472 ± 0.038	849.1 ± 3.2	4.988 ± 0.23
288.15 K, m1 = 3.129	0.396 ± 0.032	868.4 ± 3.3	7.807 ± 0.33
288.15 K, m1 = 3.911	0.322 ± 0.026	886.9 ± 3.4	12.34 ± 0.49
293.15 K, m1 = 0.196	0.188 ± 0.015	786 ± 2.7	1.357 ± 0.065
293.15 K, m1 = 0.391	0.325 ± 0.026	791.9 ± 2.8	1.524 ± 0.073
293.15 K, m1 = 0.782	0.459 ± 0.037	803.3 ± 2.8	1.869 ± 0.088
293.15 K, m1 = 1.173	0.533 ± 0.043	813.6 ± 2.9	2.307 ± 0.11
293.15 K, m1 = 1.76	0.565 ± 0.045	828.8 ± 2.9	3.124 ± 0.14
293.15 K, m1 = 2.347	0.529 ± 0.042	845.4 ± 3	4.395 ± 0.2
293.15 K, m1 = 3.129	0.45 ± 0.036	864.7 ± 3.1	6.784 ± 0.29
293.15 K, m1 = 3.911	0.367 ± 0.029	883.4 ± 3.2	10.56 ± 0.43
298.15 K, m1 = 0.196	0.231 ± 0.018	782.4 ± 2.9	1.218 ± 0.059
298.15 K, m1 = 0.391	0.354 ± 0.028	788.3 ± 2.9	1.412 ± 0.068
298.15 K, m1 = 0.782	0.506 ± 0.041	799.4 ± 3	1.677 ± 0.079
298.15 K, m1 = 1.173	0.589 ± 0.047	810.3 ± 3	2.057 ± 0.096
298.15 K, m1 = 1.76	0.629 ± 0.05	823.8 ± 3.1	2.767 ± 0.13
298.15 K, m1 = 2.347	0.6 ± 0.048	842.3 ± 3.2	3.869 ± 0.18
298.15 K, m1 = 3.129	0.514 ± 0.041	861.9 ± 3.3	5.908 ± 0.26
298.15 K, m1 = 3.911	0.427 ± 0.034	880.5 ± 3.4	9.071 ± 0.37
303.15 K, m1 = 0.196	0.25 ± 0.02	776.5 ± 3	1.089 ± 0.053
303.15 K, m1 = 0.391	0.384 ± 0.031	782.5 ± 3.1	1.306 ± 0.063
303.15 K, m1 = 0.782	0.554 ± 0.044	794.7 ± 3.1	1.527 ± 0.073
303.15 K, m1 = 1.173	0.649 ± 0.052	804.8 ± 3.2	1.846 ± 0.087
303.15 K, m1 = 1.76	0.697 ± 0.056	819.5 ± 3.3	2.469 ± 0.11
303.15 K, m1 = 2.347	0.67 ± 0.054	837.1 ± 3.4	3.436 ± 0.16
303.15 K, m1 = 3.129	0.575 ± 0.046	856.7 ± 3.5	5.171 ± 0.23
303.15 K, m1 = 3.911	0.487 ± 0.039	875.4 ± 3.6	7.924 ± 0.33
308.15 K, m1 = 0.196	0.27 ± 0.022	773.8 ± 3.2	1.006 ± 0.05
308.15 K, m1 = 0.391	0.42 ± 0.034	779.7 ± 3.2	1.129 ± 0.055
308.15 K, m1 = 0.782	0.605 ± 0.048	791.2 ± 3.3	1.369 ± 0.066
308.15 K, m1 = 1.173	0.711 ± 0.057	802.3 ± 3.4	1.671 ± 0.079
308.15 K, m1 = 1.76	0.772 ± 0.062	816.6 ± 3.4	2.223 ± 0.1
308.15 K, m1 = 2.347	0.746 ± 0.06	835.6 ± 3.5	3.077 ± 0.14
308.15 K, m1 = 3.129	0.644 ± 0.051	854.7 ± 3.6	4.578 ± 0.21
308.15 K, m1 = 3.911	0.551 ± 0.044	873.6 ± 3.7	6.884 ± 0.29
313.15 K, m1 = 0.196	0.289 ± 0.023	773 ± 3.4	0.928 ± 0.046
313.15 K, m1 = 0.391	0.447 ± 0.036	779 ± 3.4	1.046 ± 0.052
313.15 K, m1 = 0.782	0.652 ± 0.052	790.7 ± 3.5	1.267 ± 0.061
313.15 K, m1 = 1.173	0.773 ± 0.062	801.9 ± 3.5	1.524 ± 0.073
313.15 K, m1 = 1.76	0.852 ± 0.068	815.8 ± 3.6	2.01 ± 0.094
313.15 K, m1 = 2.347	0.822 ± 0.066	835.2 ± 3.7	2.762 ± 0.13
313.15 K, m1 = 3.129	0.712 ± 0.057	854.7 ± 3.8	4.089 ± 0.18
313.15 K, m1 = 3.911	0.624 ± 0.05	873.7 ± 3.9	6.076 ± 0.26
318.15 K, m1 = 0.196	0.309 ± 0.025	772.2 ± 3.6	0.866 ± 0.044
318.15 K, m1 = 0.391	0.48 ± 0.038	778.6 ± 3.6	0.968 ± 0.048
318.15 K, m1 = 0.782	0.708 ± 0.057	790.9 ± 3.7	1.164 ± 0.057
318.15 K, m1 = 1.173	0.843 ± 0.067	801.8 ± 3.7	1.414 ± 0.068
318.15 K, m1 = 1.76	0.931 ± 0.074	816.8 ± 3.8	1.842 ± 0.087
318.15 K, m1 = 2.347	0.91 ± 0.073	834.9 ± 3.9	2.538 ± 0.12
318.15 K, m1 = 3.129	0.792 ± 0.063	853.9 ± 4	3.735 ± 0.17
318.15 K, m1 = 3.911	0.697 ± 0.056	874 ± 4.1	5.603 ± 0.25
323.15 K, m1 = 0.196	0.327 ± 0.026	768.7 ± 3.8	0.807 ± 0.041
323.15 K, m1 = 0.391	0.512 ± 0.041	774.3 ± 3.8	0.884 ± 0.045
323.15 K, m1 = 0.782	0.762 ± 0.061	786.1 ± 3.8	1.07 ± 0.053
323.15 K, m1 = 1.173	0.911 ± 0.073	796.6 ± 3.9	1.285 ± 0.062
323.15 K, m1 = 1.76	1.02 ± 0.082	811 ± 4	1.677 ± 0.079
323.15 K, m1 = 2.347	0.998 ± 0.08	830.4 ± 4.1	2.335 ± 0.11
323.15 K, m1 = 3.129	0.875 ± 0.07	851.3 ± 4.2	3.437 ± 0.16
323.15 K, m1 = 3.911	0.783 ± 0.063	869.4 ± 4.3	5.009 ± 0.23
